Assay results as given in patent US5728885A, “Method of preparing the enantiomers of O-dimethyltramadol” (priority 1996, dated 1998).
Where a name gives a salt, the structure may show the parent alone. Read-outs that look alike come from different tables or passages of the source.

What was measured:
[1] = tested on: thermal radiation pain (tail flick); experiment: thermal radiation (tail flick) test on rats (analgesia); type: in vivo, female Sprague Dawley rats; conditions: Rattus norvegicus, 20 min, read-out: ED50 in the tail flick test
From the text: Testing for analgesia using the tail flick test on rats
The analgesic effectiveness of the compounds to be used according to the invention was investigated in the thermal radiation (tail flick) test on rats using the method of D'Amour and Smith (J. Pharm. Exp. Ther. 72, 74-79 (1941). Female Sprague Dawley rats with a weight of 120-160 g were used for this purpose. The animals were placed individually in test cages and the bases of their tails were exposed to the focused thermal radiation from an electric lamp (Rhema Analgesiemeter for rats). The lamp intensity was adjusted so that the time from switching on the lamp until the sudden twitching away of the tail (latency of pain) was 3-6 seconds for untreated animals. Before the administration of the compounds to be used according to the invention, the animals were tested twice within five minutes and the average value of these measurements was calculated as the pre-test average. The pain measurement was made 20, 40 and 60 minutes after intravenous administration. […]. In order to determine the dosage-dependency, the compounds were administered in doses increasing logarithmically by a factor of 3-5, which included the threshold and the maximum effective dose each time. The ED50 values were determined from the number of analgesic animals by the method of Litchfield and Wilcoxon (J. Pharm. Exp. Ther. 96, 99-113, (1949)). The ED50 was calculated at the effective maximum 20 minutes after intravenous administration of the substance.

[2] = tested on: phenylquinone-induced writhing; experiment: phenylquinone-induced writhing test on mice (analgesia); type: in vivo, male NMRI mice; conditions: Mus musculus, read-out: ED50 in the writhing test
Experimental: Testing for analgesia using the writhing test on mice
Testing for analgesic effectiveness was performed using the phenylquinone-induced writhing test on mice (modified according to I. C. Hendershot, J. Forsaith, J. Pharmacol. Exp. Ther. 125, 237-240 (1959)). […]. For each dose of substance, groups of 10 animals received, 10 minutes after the intravenous administration of the compounds to be used according to the invention, 0.3 ml per mouse of an 0.02% aqueous solution of phenylquinone (phenylbenzoquinone: manufactured by Sigma, Deisenhofen; solution prepared with the addition of 5 % ethanol and kept on a water bath at 45° C.) administered intraperitoneally. The animals were placed individually in observation cages, and the number of pain-induced stretching movements (so-called writhing reactions=straightening of the body with stretching of the rear extremities) 5-20 minutes after the administration of phenylquinone was counted by means of a push-button counter. The ED50 values were calculated with a 95% confidence limit by means of regression analysis (evaluation program supplied by Martens EDV Service, Eckental) from the dose-dependent decrease in the writhing reactions, by comparison with control groups which were tested in parallel and which were treated with phenylquinone only.

[3] = analgesic effect (statement in words); type: in vivo; conditions: on its own or in combination with tramadol
[4] = intravenous, 20 minutes after administration, >150 % of pre-test average latency, rats
[5] = intravenous, phenylquinone i.p. 10 minutes after compound, writhing counted 5-20 minutes after phenylquinone, mice

SMILES | ED50 [1, 4] [mg/kg] | ED50 [2, 5] [mg/kg] | ED50 ([1]; iv) [mg/kg] | ED50 ([2]; iv) [mg/kg] | analgesic effect [3]
CN(C)C[C@H]1CCCC[C@]1(O)c1cccc(O)c1 [(+)-enantiomer of O-demethyltramadol hydrochloride, (+)-(1R, 2R)-3-(2-dimethyl-aminomethyl-1-hydroxy-cyclohexyl)-phenol hydrochloride] | 1.01 | 0.489 | – | – | –
COc1cccc([C@@]2(O)CCCC[C@@H]2CN(C)C)c1.Cl (racemic) [racemic tramadol hydrochloride, (1RS, 2RS)-2-dimethylaminomethyl-1-(3-methoxy-phenyl)-cyclohexanol hydrochloride, reference compound] | – | – | 6.47 | 3.59 | –
CN(C)C[C@@H]1CCCC[C@@]1(O)c1cccc(O)c1 [(-)-enantiomer of O-demethyltramadol hydrochloride, (-)-(1S, 25)-3-(2-dimethylaminomethyl-1-hydroxy-cyclohexyl)-phenol hydrochloride] | > 10 | 6.6 | – | – | –
CN(C)C[C@H]1CCCC[C@]1(O)c1cccc(O)c1 (relative stereo) [O-demethyltramadol] | – | – | – | – | high analgesic effect
